The values below are quoted from earlier work in patent publication US20100087475A1, “PHARMACEUTICAL COMPOUNDS” (Biovali Laboratories International (Barbados) S.R.L., priority 2008, published 2010).

The series addresses VMAT2 (Homo sapiens, UniProt Q05940). Particulars: Erickson et al. (1996); cited from earlier work.

Sequence of VMAT2 (Q05940 whole entry): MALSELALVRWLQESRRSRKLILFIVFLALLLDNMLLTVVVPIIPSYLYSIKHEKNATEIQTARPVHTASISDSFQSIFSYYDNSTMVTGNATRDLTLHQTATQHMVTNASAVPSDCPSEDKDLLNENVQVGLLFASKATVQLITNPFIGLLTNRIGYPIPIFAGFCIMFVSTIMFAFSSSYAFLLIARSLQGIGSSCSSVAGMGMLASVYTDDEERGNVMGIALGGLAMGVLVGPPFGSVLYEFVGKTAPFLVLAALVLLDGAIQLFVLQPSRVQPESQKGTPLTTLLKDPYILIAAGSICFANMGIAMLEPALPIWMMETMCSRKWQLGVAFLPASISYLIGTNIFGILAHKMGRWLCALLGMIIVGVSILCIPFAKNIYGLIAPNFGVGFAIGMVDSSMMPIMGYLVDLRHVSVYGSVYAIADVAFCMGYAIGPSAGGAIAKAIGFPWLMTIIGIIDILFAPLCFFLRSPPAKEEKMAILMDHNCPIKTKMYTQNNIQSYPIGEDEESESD

For `COc1cc2c(cc1OC)C1CC(=O)C(CC(C)C)CN1CC2` (stereo not shown) [tetrabenazine, 1,3,4,6,7,11b-hexahydro-9,10-dimethoxy-3-(2-methylpropyl)-2H-benzo(a)quinolizin-2-one], the “affinity for VMAT2 in comparison to VMAT1” value is at least 200 fold.
